Data: ChEMBL document CHEMBL4627326, “Discovery of 4-hydroxy-2-oxo-1,2-dihydroquinolines as potential inhibitors of Streptococcus pneumoniae, including drug-resistant strains” (Bioorg Med Chem Lett, 2020)
In brackets after ≈: the same amount, converted by molar mass.

Experiments:
Streptococcus pneumoniae [1] = test: Antibacterial activity against Streptococcus pneumoniae ATCC 49617; format: functional, organism-based
Streptococcus pneumoniae [2] = test: Antibacterial activity against Streptococcus pneumoniae ATCC BAA1663; format: functional, organism-based
Streptococcus pneumoniae [3] = test: Antibacterial activity against Streptococcus pneumoniae ATCC 700904; format: functional, organism-based
[4] = Half life in rat at 2 mg/kg, iv; format: ADME, organism-based; settings: in vivo
[5] = AUC in rat at 2 mg/kg, iv; format: ADME, organism-based; settings: in vivo
[6] = Clearance in rat at 2 mg/kg, iv; format: ADME, organism-based; settings: in vivo
[7] = Volume of distribution at steady state in rat at 2 mg/kg, iv; format: ADME, organism-based; settings: in vivo, read-out: Vdss
[8] = Tmax in rat at 10 mg/kg, po; format: ADME, organism-based; settings: in vivo
[9] = Cmax in rat at 10 mg/kg, po; format: ADME, organism-based; parameters: dose 10 mg/kg, route oral; settings: in vivo
[10] = Half life in rat at 10 mg/kg, po; format: ADME, organism-based; settings: in vivo
[11] = AUC in rat at 10 mg/kg, po; format: ADME, organism-based; settings: in vivo
[12] = Oral bioavailability in rat at 10 mg/kg; format: ADME, organism-based; settings: in vivo
[13] = Solubility of compound at 1 mg/ml incubated for 24 hrs by LC/MS analysis; format: physicochemical
[14] = Protein binding in rat plasma; format: ADME, cell-free; settings: read-out: PPB (converted)
[15] = Protein binding in human plasma; format: ADME, cell-free; settings: read-out: PPB (converted)
[16] = Streptococcus pneumoniae, ATCC 700904, read-out: IC50

Row | SMILES | IC50 (Streptococcus pneumoniae [1]) | IC50 (Streptococcus pneumoniae [2]) | IC50 (Streptococcus pneumoniae [3]; [16]) | further results
1 | O=C(Nc1nc2ccc(Cl)cc2s1)c1c(O)c2cccc3c2n(c1=O)CCC3 | > 20 µM | > 20 µM | > 20 µM | 
2 | CCCCn1c(=O)c(C(=O)Nc2nc3ccc(Cl)cc3s2)c(O)c2ccccc21 | 1 µM | 0.66 µM | 0.38 µM | 
3 | C=CCn1c(=O)c(C(=O)Nc2nc3ccc(Cl)cc3s2)c(O)c2ccccc21 | > 20 µM | 3.1 µM | 3.1 µM | 
4 | C=CCn1c(=O)c(C(=O)Nc2nc3ccccc3[nH]2)c(O)c2ccccc21 | 4.9 µM | > 20 µM | > 20 µM | 
5 | O=C(Nc1nc2ccccc2[nH]1)c1c(O)c2cccc3c2n(c1=O)CC3 | 2 µM | 2.1 µM | 3.3 µM | half-life [4]: 7.7 h; AUC [5]: 25700 ng·h/mL; clearance [6]: 1.17 mL/min/kg; Vd [7]: 0.84 L/kg; Tmax [8]: 2.7 h; Cmax [9]: 2700 ng/mL; half-life [10]: 7.2 h; AUC [11]: 21400 ng·h/mL; bioavailability [12]: 17%
6 | O=C(Nc1nc2ccccc2s1)c1c(O)c2cccc3c2n(c1=O)CC3 | 3.6 µM | 8.8 µM | 7.9 µM | 
7 | CCn1c(=O)c(C(=O)Nc2nc3ccccc3[nH]2)c(O)c2ccccc21 | 6.4 µM | 5.4 µM | 3.8 µM | 
8 | CN[C@H](CC(C)C)C(=O)N[C@H]1C(=O)N[C@@H](CC(N)=O)C(=O)N[C@H]2C(=O)N[C@H]3C(=O)N[C@H](C(=O)N[C@H](C(=O)O)c4cc(O)cc(O)c4-c4cc3ccc4O)[C@H](O)c3ccc(c(Cl)c3)Oc3cc2cc(c3O[C@@H]2O[C@H](CO)[C@@H](O)[C@H](O)[C@H]2O[C@H]2C[C@](C)(N)[C@H](O)[C@H](C)O2)Oc2ccc(cc2Cl)[C@H]1O [VANCOMYCIN] | 0.15 to 0.18 µM | 0.13 to 0.19 µM | 0.12 to 0.19 µM | 
9 | O=C(Nc1nc2ccc(Cl)cc2s1)c1c(O)c2ccccc2[nH]c1=O | 13.1 µM | > 20 µM | > 20 µM | 
10 | CCCCn1c(=O)c(C(=O)Nc2nc3ccccc3[nH]2)c(O)c2ccccc21 | 0.92 µM | 1.8 µM | 0.8 µM | half-life [4]: 18.8 h; AUC [5]: 6990 ng·h/mL; clearance [6]: 3 mL/min/kg; Vd [7]: 4.76 L/kg; Tmax [8]: 6 h; Cmax [9]: 1200 ng/mL; half-life [10]: 4 h; AUC [11]: 12400 ng·h/mL; bioavailability [12]: 35%
11 | C=CCn1c(=O)c(C(=O)Nc2nccs2)c(O)c2ccccc21 | 4.1 µM | 4.5 µM | 4.2 µM | 
12 | Cn1c(=O)c(C(=O)Nc2nc3ccccc3[nH]2)c(O)c2ccccc21 | > 20 µM | > 20 µM | > 20 µM | 
13 | O=C(Nc1nccs1)c1c(O)c2cccc3c2n(c1=O)CC3 | 17.6 µM | 16 µM | > 20 µM | 
14 | Cn1c(=O)c(C(=O)Nc2nccs2)c(O)c2ccccc21 | > 20 µM | > 20 µM | > 20 µM | 
15 | CCn1c(=O)c(C(=O)Nc2nccs2)c(O)c2ccccc21 | > 20 µM | 6.6 µM | 6.2 µM | 
16 | O=C(Nc1nc2ccccc2[nH]1)c1c(O)c2cccc3c2n(c1=O)CCC3 | 6.5 µM | 5.2 µM | 6.4 µM | 
17 | CCn1c(=O)c(C(=O)Nc2nc3ccc(Cl)cc3s2)c(O)c2ccccc21 | 5.9 µM | > 20 µM | > 20 µM | 
18 | Cc1nnc(NC(=O)c2c(O)c3cccc4c3n(c2=O)CC4)s1 | 2.2 µM | 2.7 µM | 1.7 µM | 
19 | CC[C@H]1OC(=O)[C@H](C)[C@@H](O[C@H]2C[C@@](C)(OC)[C@@H](O)[C@H](C)O2)[C@H](C)[C@@H](O[C@@H]2O[C@H](C)C[C@H](N(C)C)[C@H]2O)[C@](C)(O)C[C@@H](C)C(=O)[C@H](C)[C@@H](O)[C@]1(C)O [ERYTHROMYCIN] | 0.051 to 0.1 µM | 0.037 to 0.08 µM |  | IC50 (Streptococcus pneumoniae [3]): Not Active
20 | O=C(Nc1nccs1)c1c(O)c2cccc3c2n(c1=O)CCC3 | > 20 µM | > 20 µM | > 20 µM | 
21 | O=C(Nc1nc2ccc(Cl)cc2s1)c1c(O)c2cccc3c2n(c1=O)CC3 | 0.27 µM | 1.03 µM | 0.62 µM | solubility at 24 h [13]: 0.195 µg/mL (≈ 0.49 µM); fraction unbound [14]: 0.016; fraction unbound [15]: 0.006
22 | CCCCn1c(=O)c(C(=O)Nc2nccs2)c(O)c2ccccc21 | 0.57 µM | 0.75 µM | 0.77 µM | 
